These results are taken from patent US20200179369A1, “TREATMENT OF DIABETIC NEPHROPATHY” (TAKEDA GMBH, priority 2015, published 2020).

Experiment [1] concerns female db/db mice. In words: HbA1c, 4 weeks treatment in female db/db mice. The format is in vivo. Conditions: 28 days, vehicle 9.06%. As to the method: Female db/db mice were purchased from Taconic (Lille Skensved, Denmark) at 5-6 weeks of age and were maintained under standard conditions (5 animals/cage; 12 h light-dark cycle; room temperature of 22±2° C.; relative humidity of 60±15%). All mice had free access to water and standard chow (Provimi Kliba, Kaiseraugst, Switzerland). Four days upon arrival animals were randomized based on body weight and levels of glycated hemoglobin 1c (HbA1c). At 7 weeks of age, animals were treated daily by oral gavage with vehicle (4% methylcellulose) or with Compound A (composed in aqueous 4% methylcellulose) using doses of 1, 3 and 10 mg/kg s.i.d. (doses related to free base). The required dose was applied in a volume of 10 ml/kg body weight. Each dose group consisted of 10 animals. At the end of the treatment period plasma samples were isolated for determination of HbA1c levels. All experimental procedures were conducted according to the German Animal Protection Law.
HbA1c was analyzed from tail-tip-blood (HbA1c determination before treatment) as well as from blood collected from the retro-orbital venous plexus (HbA1c determination after 4 weeks treatment) using the Hemoglobin A1c Test (Siemens, Bad Nauheim, Germany).
Values are presented as means ±SEM. Statistical differences were determined using one-way-ANOVA followed by a post-hoc analysis with Dunnet's correction (GraphPad Prism).
Definition of significance: n.s.=not significant (p>0.05) • *, **, ***=p<0.05, <0.01, <0.001

The test system of experiment [2] is fibronectin mRNA. The experiment in a line: TGF-β-induced mRNA expression of fibronectin in human mesangial cells. In kind it is cell-based. Conditions: in the presence of forskolin 1 μM, TGF-β 3 ng/mL, 24 h. As to the method:
(§1) Human mesangial cells were purchased from DS Pharma Biomedical (US). Compound A was obtained from Takeda GmbH, Konstanz, Germany. Forskolin and dimethyl sulfoxide (DMSO) were purchased from Wako Pure Chemical Industries, Ltd (Japan). Recombinant human TGF-β was purchased from R&D systems (USA).
(§2) On day 0, human mesangial cells were seeded at a cell density of 2×10^5 cells/well in CSC complete medium (Cell Systems, USA) on type 1 collagen-coated 24-well plate (AGC TECHNO GLASS Co. Ltd., Japan) in an atmosphere of 95% air and 5% CO2 at 37° C. On day 1, the cells were serum starved with CMC medium which is not containing serum and growth factors. On day 2, Compound A at final concentrations of 0.001, 0.01, 0.1, 1 and 10 μM or DMSO (control) was added to the culture medium. […] For the measurement of mRNA levels of type 1 collagen α1 chain and fibronectin, total RNA isolated at 24 hours after forskolin/TGF-β stimulation was used. mRNA expression levels were measured by quantitative real-time RT-PCR methods with TaqMan gene expression master mix and ABI PRISM 9700 (Life Technologies, USA) with target mRNA specific primer and probe sets [Human connective tissue growth factor (Hs1026927_g1); Human plasminogen activator inhibitor-1 (Hs00167155_m1); Human type 1 collagenal chain (Hs00164004_m1); Human fibronectin (HS00365052_m1); Humanglyceraldehyde 3-phosphate dehydrogenase (HS2758991_g1)]. […]

Experiment [3] relates to plasminogen activator inhibitor-1 (PAI-1) mRNA. In words: TGF-β-induced mRNA expression of plasminogen activator inhibitor-1 (PAI-1) in human mesangial cells. Conditions: 0.001-10 μM with forskolin 1 μM and TGF-β 3 ng/mL, 6 h. The format is cell-based. As to the method: as §1, §2
Experiment [4] has as its system diet-induced obese (DIO) mice. In words: Body weight, fat and lean mass, 4 weeks treatment in diet-induced obese (DIO) mice. The format is in vivo. Conditions: for body weight change from pretreatment (Day 0): mean ±S.D. As to the method:
Male C57BL/6J mice were obtained from CLEA Japan, Inc. The mice were fed High fat diet D12451 (Research diets, Inc) from 5 week to 54-week old and water ad libitum.
All mice were housed individually in animal cages and used for the study after 2 weeks of acclimation period. Animal groups (n=7) were treated with either vehicle (0.5 w/v % methylcellulose, p.o.) or Compound A (1 mg/kg or 3 mg/kg, p.o. suspension in 0.5w/v % methylcellulose solution) in the evening once a day for 4 weeks from 50 weeks of age. Body weight was measured 2 or 3 times per week. Regarding body composition fast mass and lean mass were measured.
Body composition (fat mass and lean mass) was measured by Echo-MRI-900 (ALOKA Japan).
All data are presented as mean ±S.D. For evaluation of the effects of Compound A, statistical significances between vehicle (p.o.) and Compound A treated groups were analysed with one-tailed Williams' test or Shirley-Williams test when the variances among the groups were homogeneous or heterogeneous, respectively. The p-values less than 0.025 were considered statistically significant in one-tailed Williams' test or Shirley-Williams test. Body weight change from pretreatment (Day 0) was calculated using the following formula: [(BW−BW at Day 0)/BW at Day 0]×100.

Experiment [5] concerns type 1 collagen α1 chain mRNA. The experiment in a line: TGF-β-induced mRNA expression of type 1 collagen α1 chain in human mesangial cells. In kind it is cell-based. Conditions: in the presence of forskolin 1 μM, TGF-β 3 ng/mL, 24 h. As to the method: as §1, §2

Where only a bound is given, the exact number is not on record here.

For the molecule `CCOc1cc2c(cc1OC)C(c1ccc(=O)n(C)c1)=N[C@@H]1CC[C@@H](O)C[C@H]21` [Compound A, 5-((2R,4aR,10bR)-9-Ethoxy-2-hydroxy-8-methoxy-1,2,3,4,4a,10b-hexahydro-phenanthridin-6-yl)1-methyl-1H-pyridin-2-one], the results for the “mean HbA1c” value in experiment [1] (1 mg/kg oral s.i.d.), in experiment [1] (3 mg/kg oral s.i.d.) and in experiment [1] (10 mg/kg oral s.i.d.) were 7.27%, 7.06% and 6.16%, respectively. Moreover, in experiment [2], the “concentration at which the inhibitory effect on mRNA expression of fibronectin was further enhanced” value is at least 0.1 µM. The “effect on TGF-β-induced mRNA expression of PAI-1” value in experiment [3] is “further suppressed by the treatment with Compound A in a concentration-dependent manner”. Also, the “body weight reduction corrected with vehicle (p.o.)-treated body weight change” value in experiment [4] (1 mg/kg p.o. once a day) is −8.7±3.5%. For the same molecule, the “body weight change from pretreatment (Day 0)” value in experiment [4] (1 mg/kg p.o. once a day) was −4.9±3.5%; in experiment [4] (3 mg/kg p.o. once a day) it was −17.2±4.0%. Also, the “effect on fat mass” value in experiment [4] (1 and 3 mg/kg p.o. once a day) was “dose dependently and significantly decreased fat mass”. The “effect on lean mass” value in experiment [4] (1 and 3 mg/kg p.o. once a day) is recorded as “without affecting lean mass”. For the same molecule, the “concentration at which the inhibitory effect on mRNA expression of type 1 collagen α1 chain was further enhanced” value in experiment [5] was at least 0.1 µM.
